# Measured values published in patent US6191115A, “C-terminus modified heptapeptide LHRH analogs” (Abbott Laboratories, priority 1999, dated 2001).
# Starred links: 1 amine or outer side, 2 acyl side, 3 side chain; linkers in the order of their positions; H or OH if unused. Non-standard residues stand in square brackets, D forms with d. Residues, ends and D or L forms follow the SMILES beside them. *: point of attachment. dPhe(4-Cl) = N[C@H](Cc1ccc(Cl)cc1)C(=O)O; NH(CH2)10NH = C(CCCCCN[*:2])CCCCN[*:1]; d2Nal = N[C@H](Cc1ccc2ccccc2c1)C(=O)O; NMeY = CN[C@@H](Cc1ccc(O)cc1)C(=O)O; Ethylenediamine = C(CN[*:2])N[*:1]; NHCH2(2-pyridyl) = c1ccc(CN*)nc1; d3Pal = N[C@H](Cc1cccnc1)C(=O)O; Nicotinoyl = O=C(c1cccnc1)*; NH(CH2)6NH2 = NCCCCCCN*; X9 = CC(C)NCCCCCCCCCCN*; NH(CH2)5NH2 = NCCCCCN*; NH(CH2)4NH2 = NCCCCN*; NHCH2CH2NHMe = CNCCN*; X10 = N=C(N)NCCCCCCN*; NH(CH2)4OH = OCCCCN*; X12 = N=C(N)NCCCCCN*; X1 = CC1CCCCN1CCCN*; X2 = N=C(N)NCCN*
# Biological target: T1, LH release from rat pituitary cells (Rattus norvegicus, UniProt P30969)
# T1 sequence (P30969 1-327): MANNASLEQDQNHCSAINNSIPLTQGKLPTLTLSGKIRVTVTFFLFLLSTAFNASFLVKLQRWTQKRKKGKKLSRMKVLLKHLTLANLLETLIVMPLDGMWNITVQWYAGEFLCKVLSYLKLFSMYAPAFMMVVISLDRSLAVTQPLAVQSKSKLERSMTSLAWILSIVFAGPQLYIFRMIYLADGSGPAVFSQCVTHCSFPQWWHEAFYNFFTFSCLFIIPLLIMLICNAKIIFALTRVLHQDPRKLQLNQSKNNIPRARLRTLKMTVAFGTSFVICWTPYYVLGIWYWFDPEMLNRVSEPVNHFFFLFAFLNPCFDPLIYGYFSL
# Assay: in vitro inhibition of LH release from rat pituitary cells (pA2)
# Type: cell-based
# Settings: pA2 = negative logarithm of antagonist concentration required to shift the response curve of the agonist leuprolide to two-fold higher concentration
# Experimental: Representative compounds of the present invention were evaluated in vitro for inhibition of LH release from rat pituitary cells (pA2). Methods for the assay procedures arc described by F. Haviv, et al. J. Med. Chem., 32:2340-2344 (1989). Values of pA2 are the negative logarithms of the concentration of the particular antagonist test compound required to shift the response curve produced by the agonist leuprolide to two-fold higher concentration. Typically values of 7.0 or greater are indicative of good LHRH antagonist potency, with values of 8.0 or greater being preferred. Leuprolide LHRH agonist, disclosed and claimed in U.S. Pat. No. 4,005,063, has the structure 5-oxo-Pro^1 -His^2 -Trp^3 -Ser^4 -Tyr^5 -D-Leu^6 -Leu^7 -Arg^8 -Pro^9 -NHEt.
row,Structure (SMILES),LHRH antagonist potency (pA2)
1,"CC(=O)N[C@H](Cc1ccc2ccccc2c1)C(=O)N[C@H](Cc1ccc(Cl)cc1)C(=O)N[C@H](Cc1cccnc1)C(=O)N[C@@H](CO)C(=O)N(C)[C@@H](Cc1ccc(O)cc1)C(=O)N[C@H](CCCCNC(=O)c1cccnc1)C(=O)N[C@@H](CC(C)C)C(=O)NCCCCCN [Example 13, NAcD2Nal-D4ClPhe-D3Pal-Ser-NMeTyr-DLys(Nic)-Leu-NH--(CH2)5 NH2] (Ac-[d2Nal][dPhe(4-Cl)][d3Pal]S[NMeY][dK](Nicotinoyl)L-{NH(CH2)5NH2})",9.30
2,"CC(=O)N[C@H](Cc1ccc2ccccc2c1)C(=O)N[C@H](Cc1ccc(Cl)cc1)C(=O)N[C@H](Cc1cccnc1)C(=O)N[C@@H](CO)C(=O)N(C)[C@@H](Cc1ccc(O)cc1)C(=O)N[C@H](CCCCNC(=O)c1cccnc1)C(=O)N[C@@H](CC(C)C)C(=O)NCCNC(=N)N [Example 16, NAcD2Nal-D4ClPhe-D3Pal-Ser-NMeTyr-DLys(Nic)-Leu-NH--(CH2)2 NH(C=NH)NH2] (Ac-[d2Nal][dPhe(4-Cl)][d3Pal]S[NMeY][dK](Nicotinoyl)L-X2)",8.89
3,"CC(=O)N[C@H](Cc1ccc2ccccc2c1)C(=O)N[C@H](Cc1ccc(Cl)cc1)C(=O)N[C@H](Cc1cccnc1)C(=O)N[C@@H](CO)C(=O)N(C)[C@@H](Cc1ccc(O)cc1)C(=O)N[C@H](CCCCNC(=O)c1cccnc1)C(=O)N[C@@H](CC(C)C)C(=O)NCCCCO [Example 34, NAcD2Nal-D4ClPhe-D3Pal-Ser-NMeTyr-DLys(Nic)-Leu-NH--CH2 CH2 CH2 CH2 OH] (Ac-[d2Nal][dPhe(4-Cl)][d3Pal]S[NMeY][dK](Nicotinoyl)L-{NH(CH2)4OH})",8.71
4,"CC(=O)N[C@H](Cc1ccc2ccccc2c1)C(=O)N[C@H](Cc1ccc(Cl)cc1)C(=O)N[C@H](Cc1cccnc1)C(=O)N[C@@H](CO)C(=O)N(C)[C@@H](Cc1ccc(O)cc1)C(=O)N[C@H](CCCCNC(=O)c1cccnc1)C(=O)N[C@@H](CC(C)C)C(=O)NCCCCN [Example 6, NAcD2Nal-D4ClPhe-D3Pal-Ser-NMeTyr-DLys(Nic)-Leu-NH--(CH2)4 NH2] (Ac-[d2Nal][dPhe(4-Cl)][d3Pal]S[NMeY][dK](Nicotinoyl)L-{NH(CH2)4NH2})",9.90
5,"CC(=O)N[C@H](Cc1ccc2ccccc2c1)C(=O)N[C@H](Cc1ccc(Cl)cc1)C(=O)N[C@H](Cc1cccnc1)C(=O)N[C@@H](CO)C(=O)N(C)[C@@H](Cc1ccc(O)cc1)C(=O)N[C@H](CCCCNC(=O)c1cccnc1)C(=O)N[C@@H](CC(C)C)C(=O)NCCCCCCCCCCN [Example 17, NAcD2Nal-D4ClPhe-D3Pal-Ser-NMeTyr-DLys(Nic)-Leu-NH--(CH2)10 NH2] (Ac-[d2Nal][dPhe(4-Cl)][d3Pal]S[NMeY][dK](Nicotinoyl)L-{NH(CH2)10NH})",7.63
6,"CC(=O)N[C@H](Cc1ccc2ccccc2c1)C(=O)N[C@H](Cc1ccc(Cl)cc1)C(=O)N[C@H](Cc1cccnc1)C(=O)N[C@@H](CO)C(=O)N(C)[C@@H](Cc1ccc(O)cc1)C(=O)N[C@H](CCCCNC(=O)c1cccnc1)C(=O)N[C@@H](CC(C)C)C(=O)NCCN [Example 2, NAcD2Nal-D4ClPhe-D3Pal-Ser-NMeTyr-DLys(Nic)-Leu-NH--(CH2)2 NH2] (Ac-[d2Nal][dPhe(4-Cl)][d3Pal]S[NMeY][dK](Nicotinoyl)L-Ethylenediamine)",9.58
7,"CC(=O)N[C@H](Cc1ccc2ccccc2c1)C(=O)N[C@H](Cc1ccc(Cl)cc1)C(=O)N[C@H](Cc1cccnc1)C(=O)N[C@@H](CO)C(=O)N(C)[C@@H](Cc1ccc(O)cc1)C(=O)N[C@H](CCCCNC(=O)c1cccnc1)C(=O)N[C@@H](CC(C)C)C(=O)NCCCCCNC(=N)N [Example 14, NAcD2Nal-D4ClPhe-D3Pal-Ser-NMeTyr-DLys(Nic)-Leu-NH--(CH2)5 NH(C=NH)NH2] (Ac-[d2Nal][dPhe(4-Cl)][d3Pal]S[NMeY][dK](Nicotinoyl)L-X12)",9.81
8,"CC(=O)N[C@H](Cc1ccc2ccccc2c1)C(=O)N[C@H](Cc1ccc(Cl)cc1)C(=O)N[C@H](Cc1cccnc1)C(=O)N[C@@H](CO)C(=O)N(C)[C@@H](Cc1ccc(O)cc1)C(=O)N[C@H](CCCCNC(=O)c1cccnc1)C(=O)N[C@@H](CC(C)C)C(=O)NCCCN1CCCCC1C (stereo partly drawn) [Example 32, NAcD2Nal-D4ClPhe-D3Pal-Ser-NMeTyr-DLys(Nic)-Leu-NH--CH2 CH2 CH2 -[1-(2-methyl)piperidine]] (Ac-[d2Nal][dPhe(4-Cl)][d3Pal]S[NMeY][dK](Nicotinoyl)L-X1)",9.07
9,"CC(=O)N[C@H](Cc1ccc2ccccc2c1)C(=O)N[C@H](Cc1ccc(Cl)cc1)C(=O)N[C@H](Cc1cccnc1)C(=O)N[C@@H](CO)C(=O)N(C)[C@@H](Cc1ccc(O)cc1)C(=O)N[C@H](CCCCNC(=O)c1cccnc1)C(=O)N[C@@H](CC(C)C)C(=O)NCCCCCCNC(=N)N [Example 11, NAcD2Nal-D4ClPhe-D3Pal-Ser-NMeTyr-DLys(Nic)-Leu-NH--(CH2)6 NH(C=NH)NH2] (Ac-[d2Nal][dPhe(4-Cl)][d3Pal]S[NMeY][dK](Nicotinoyl)L-X10)",9.10
10,"CNCCNC(=O)[C@H](CC(C)C)NC(=O)[C@@H](CCCCNC(=O)c1cccnc1)NC(=O)[C@H](Cc1ccc(O)cc1)N(C)C(=O)[C@H](CO)NC(=O)[C@@H](Cc1cccnc1)NC(=O)[C@@H](Cc1ccc(Cl)cc1)NC(=O)[C@@H](Cc1ccc2ccccc2c1)NC(C)=O [Example 19, NAcD2Nal-D4ClPhe-D3Pal-Ser-NMeTyr-DLys(Nic)-Leu-NH--(CH2)2 NHCH3] (Ac-[d2Nal][dPhe(4-Cl)][d3Pal]S[NMeY][dK](Nicotinoyl)L-NHCH2CH2NHMe)",9.70
11,"CC(=O)N[C@H](Cc1ccc2ccccc2c1)C(=O)N[C@H](Cc1ccc(Cl)cc1)C(=O)N[C@H](Cc1cccnc1)C(=O)N[C@@H](CO)C(=O)N(C)[C@@H](Cc1ccc(O)cc1)C(=O)N[C@H](CCCCNC(=O)c1cccnc1)C(=O)N[C@@H](CC(C)C)C(=O)NCCCCCCCCCCNC(C)C [Example 21, NAcD2Nal-D4ClPhe-D3Pal-Ser-NMeTyr-DLys(Nic)-Leu-NH--(CH2)10 NH-isopropyl] (Ac-[d2Nal][dPhe(4-Cl)][d3Pal]S[NMeY][dK](Nicotinoyl)L-X9)",8.42
12,"CC(=O)N[C@H](Cc1ccc2ccccc2c1)C(=O)N[C@H](Cc1ccc(Cl)cc1)C(=O)N[C@H](Cc1cccnc1)C(=O)N[C@@H](CO)C(=O)N(C)[C@@H](Cc1ccc(O)cc1)C(=O)N[C@H](CCCCNC(=O)c1cccnc1)C(=O)N[C@@H](CC(C)C)C(=O)NCc1ccccn1 [Example 23, NAcD2Nal-D4ClPhe-D3Pal-Ser-NMeTyr-DLys(Nic)-Leu-NH--CH2 -(2-pyridine)] (Ac-[d2Nal][dPhe(4-Cl)][d3Pal]S[NMeY][dK](Nicotinoyl)L-{NHCH2(2-pyridyl)})",9.18
13,"CC(=O)N[C@H](Cc1ccc2ccccc2c1)C(=O)N[C@H](Cc1ccc(Cl)cc1)C(=O)N[C@H](Cc1cccnc1)C(=O)N[C@@H](CO)C(=O)N(C)[C@@H](Cc1ccc(O)cc1)C(=O)N[C@H](CCCCNC(=O)c1cccnc1)C(=O)N[C@@H](CC(C)C)C(=O)NCCCCCCN [Example 5, NAcD2Nal-D4ClPhe-D3Pal-Ser-NMeTyr-DLys(Nic)-Leu-NH--(CH2)6 NH2] (Ac-[d2Nal][dPhe(4-Cl)][d3Pal]S[NMeY][dK](Nicotinoyl)L-{NH(CH2)6NH2})",9.91
